The test system of one data set is METTL14. Briefly: Cellular degradation assay (Western blot), METTL14 in MOLM-13. The settings on record: MOLM-13, 24 h, 2 μM compound. The format is cell-based, human. A digest of the protocol:
(§1)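 24h PROTAC exposure (DMSO 0.1% v/v control), 37 °C, 5% CO2; RIPA lysis, SDS-PAGE, nitrocellulose, anti-METTL3/anti-METTL14 blots, GAPDH/β-actin loading controls, IR imaging, densitometry.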

The nature of data set [1]: Cell viability assay (CellTiter-Glo) on MOLM-13. The format is cell-based. The settings on record: human, MOLM-13 cells, average of two biological replicates; for viability at 72 h, […]: 2.5 µM. The method, boiled down: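 MOLM-13 AML cells grown in RPMI 1640 with 10% FBS at 37 °C, 5% CO2. Viability read as ATP luminescence by CellTiter-Glo after 10 min at room temperature, with background from cell-free medium wells subtracted.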

Another data set addresses T1, METTL3 (Homo sapiens, UniProt Q86U44).
T1 construct: METTL3–14 degradation up to 70% of the endogenous level; endogenous in cells; host or cells: MOLM-13, PC3, DU145
Nature of the data set: Cellular degradation assay (Western blot), METTL3 in MOLM-13. The format is cell-based. The settings on record: MOLM-13, 24 h, 2 μM compound. A digest of the protocol: as §1

In data set [2] the target is T2, ternary complex CRBN/PROTAC/METTL3–14 (Homo sapiens, UniProt Q86U44+Q96SW2).
T2 construct: methyltransferase domains (MTD) of METTL3 (residues 354–580); His6 (N, cleaved yes); made in house; host or cells: METTL3-MTD/METTL14-MTD: baculovirus/Sf9; CRBN-TBD: E. coli Rosetta (DE3), co-expressed with BirA
T2 sequence (Q86U44 354-580): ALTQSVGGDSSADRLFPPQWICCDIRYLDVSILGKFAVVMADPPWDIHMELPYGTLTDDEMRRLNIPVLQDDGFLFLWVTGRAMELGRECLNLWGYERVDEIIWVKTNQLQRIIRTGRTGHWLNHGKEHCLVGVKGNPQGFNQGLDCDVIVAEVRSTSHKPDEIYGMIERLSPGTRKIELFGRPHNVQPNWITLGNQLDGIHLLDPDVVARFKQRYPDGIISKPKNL
T2 sequence (Q9HCE5 107-395 partner limits assumed): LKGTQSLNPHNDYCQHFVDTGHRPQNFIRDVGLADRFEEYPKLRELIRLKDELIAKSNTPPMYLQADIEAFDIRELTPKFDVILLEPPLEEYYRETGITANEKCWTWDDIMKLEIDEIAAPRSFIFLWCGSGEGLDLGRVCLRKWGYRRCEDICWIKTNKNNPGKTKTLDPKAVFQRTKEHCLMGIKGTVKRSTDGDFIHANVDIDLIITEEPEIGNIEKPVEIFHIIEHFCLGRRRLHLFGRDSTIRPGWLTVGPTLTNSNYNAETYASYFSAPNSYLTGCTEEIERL
T2 sequence (Q96SW2 318-442): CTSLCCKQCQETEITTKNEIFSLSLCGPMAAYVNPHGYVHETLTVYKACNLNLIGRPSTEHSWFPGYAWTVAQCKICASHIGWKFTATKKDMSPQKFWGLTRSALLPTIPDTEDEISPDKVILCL
Briefly: FRET-based ternary complex formation assay (TCFA). The format is binding. The settings on record: for TCFA amplitude (mean ± SEM): Hook curve amplitude, fraction of the maximum of compound 16; for ECmax (nM) ± SD: PROTAC concentration at the maximum of the signal in the TCFA; for ECmax: TCFA, peak of the Hook curve. A digest of the protocol:
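HTRF/TR-FRET measurement of PROTAC-induced complex between GST-tagged METTL3–14 and biotinylated CRBN^TBD-Avi (10 nM final) with 0.8 nM Eu^3+ anti-GST antibody, in 50 mM HEPES pH 7.5, 150 mM NaCl, 0.1% BSA, 100 mM KF. Emission ratio used; ECmax and Hook-curve amplitude taken from Gaussian fit or highest-signal data point.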

A further data set concerns the target METTL3-14 (Homo sapiens, UniProt Q86U44). Nature of the data set: Cellular degradation assay (Western blot), METTL3 and/or METTL14 (METTL3–14) in MOLM-13. The format is cell-based. Also noted: METTL3–14 degradation up to 70% of the endogenous level; endogenous in cells; host or cells: MOLM-13, KASUMI-1, THP-1, NOMO-1. The settings on record: for degradation of METTL3 and/or METTL14: MOLM-13, 2 μM, 24 h, Western blot. As to the method:
MOLM-13, NOMO-1, THP-1, Kasumi-1, PC3, and DU145 cell lines were obtained from DSMZ-German Collection of Microorganisms and Cell Cultures GmbH. […] All cell lines were tested negative for mycoplasma contamination (PCR-based assay by Microsynth, Switzerland).
METTL3 (and METTL14) protein degradation was monitored by Western blot. Cells were treated with the indicated concentration of PROTACs or DMSO control (0.1% (v/v)) for 24h, 37 °C with 5% CO2. […] After SDS-PAGE, proteins were transferred to a nitrocellulose membrane, blocked (with 5% milk, 0.5% BSA in TBST buffer), and incubated overnight with primary antibodies. […] Densitometry was performed in Image Studio Lite software and analyzed in GraphPad Prism 9.

The next data set has as its system PC3 cell line. Briefly: Cell viability assay (CellTiter-Glo) on PC3. The format is cell-based, human. As to the method: MOLM-13, NOMO-1, THP-1, Kasumi-1, PC3, and DU145 cell lines were obtained from DSMZ-German Collection of Microorganisms and Cell Cultures GmbH. Cells were cultured in RPMI 1640 medium (11875093, Thermo Fisher Scientific) containing 10% FBS (16140071, Thermo Fisher Scientific) and 1% penicillin-streptomycin (15140122, Thermo Fisher Scientific) in 5% CO2 at 37 °C in a humidified incubator, with maintained cell densities at 0.5–1 × 10^6 cells/mL. All cell lines were tested negative for mycoplasma contamination (PCR-based assay by Microsynth, Switzerland).
Cells were seeded in white clear-bottom 96-well plates at a density of 6–20 × 10^3 cells/well in 50 μL of the complete RPMI medium and treated with 50 μL of increasing concentrations of the indicated compounds dissolved in DMSO (final concentration of compounds 0.01–10 μM) or DMSO only as a negative control (0.01% (v/v)) and incubated for 72 h at 37 °C with 5% CO2. Cell viability was determined using a CellTiter-Glo luminescent cell viability assay (Promega) based on the detection of ATP according to the manufacturer’s instructions. 100 μL of the reagent was added to each well and incubated for 10 min at room temperature. The luminescence was recorded using a Tecan Infinite […] M1000 microplate reader from the top. Background luminescence value was obtained from wells containing the CellTiter-Glo reagent and medium without cells. The resulting data was analyzed in GraphPad Prism 9.

Data set [3] has as its target His-GST-METTL3^MTD-METTL14^MTD (human) (UniProt Q86U44).

Where “and” joins values, the source holds several entries; their conditions need not be identical. Equal entries are not always repeated.

T1 sequence (Q86U44 2-580 limits assumed): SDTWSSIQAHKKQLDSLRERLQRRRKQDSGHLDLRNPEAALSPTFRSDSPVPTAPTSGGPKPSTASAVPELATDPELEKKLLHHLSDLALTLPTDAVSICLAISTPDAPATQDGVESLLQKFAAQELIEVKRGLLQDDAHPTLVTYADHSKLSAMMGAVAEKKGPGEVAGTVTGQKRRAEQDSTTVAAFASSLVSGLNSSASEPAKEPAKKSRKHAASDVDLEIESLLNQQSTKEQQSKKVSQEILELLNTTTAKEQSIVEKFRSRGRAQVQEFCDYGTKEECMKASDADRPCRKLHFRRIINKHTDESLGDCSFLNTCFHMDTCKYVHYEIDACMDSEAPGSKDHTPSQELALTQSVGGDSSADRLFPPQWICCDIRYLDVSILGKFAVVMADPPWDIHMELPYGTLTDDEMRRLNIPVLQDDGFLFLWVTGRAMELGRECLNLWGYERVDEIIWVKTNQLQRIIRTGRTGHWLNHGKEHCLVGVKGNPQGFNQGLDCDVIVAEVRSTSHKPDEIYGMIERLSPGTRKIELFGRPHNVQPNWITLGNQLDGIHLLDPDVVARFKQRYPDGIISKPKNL
T1 sequence (Q9HCE5 whole entry partner): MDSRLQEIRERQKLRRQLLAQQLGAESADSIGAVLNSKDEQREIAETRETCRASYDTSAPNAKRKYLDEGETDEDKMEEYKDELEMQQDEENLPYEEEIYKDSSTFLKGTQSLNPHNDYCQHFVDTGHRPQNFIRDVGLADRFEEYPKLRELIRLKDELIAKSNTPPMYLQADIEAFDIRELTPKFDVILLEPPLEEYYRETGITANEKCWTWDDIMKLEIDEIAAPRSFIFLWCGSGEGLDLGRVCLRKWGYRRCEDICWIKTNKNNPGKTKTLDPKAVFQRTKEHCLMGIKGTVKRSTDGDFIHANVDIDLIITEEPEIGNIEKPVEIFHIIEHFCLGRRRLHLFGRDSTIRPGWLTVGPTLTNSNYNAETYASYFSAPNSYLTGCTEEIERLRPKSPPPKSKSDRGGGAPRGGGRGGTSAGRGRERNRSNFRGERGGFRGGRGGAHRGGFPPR
METTL3-14, sequence (Q86U44 2-580 limits assumed): as the sequence (Q86U44 2-580 limits assumed) above
METTL3-14, sequence (Q9HCE5 whole entry partner): as the sequence (Q9HCE5 whole entry partner) above
His-GST-METTL3^MTD-METTL14^MTD (human), sequence (Q86U44 354-580, chain 1 of 2): as the sequence (Q86U44 354-580) above
His-GST-METTL3^MTD-METTL14^MTD (human), sequence (chain, as listed by the source, chain 2 of 2): as the sequence (Q9HCE5 107-395 partner limits assumed) above

Consider `CC1(C)CCN(Cc2cc(F)c(N3CC(=O)NC4(CCN(c5cc(NCCN6CCN(C(=O)CCCNc7cccc8c7C(=O)N(C7CCC(=O)NC7=O)C8=O)CC6)ncn5)CC4)C3)cc2F)CC1` (centres unmarked) [Compound 29], for which, in the data set on METTL14, the “MOLM-13 West. blot at 24h 2 μM comp conc. Degradation (%) of METTL14” value (shortened to “MOLM-13 West. blot … (%) of METTL14”) is 51 ± 11%. Further, in data set [1], the viability at 72 h, 0.6 µM was determined as 93.7%; the viability at 72 h, 1.25 µM is 93.5%; the viability at 72 h, […] turned out to be 93.4%; the viability at 72 h, 5 µM was found to be 94.5%. The viability at 72 h, 10 µM in data set [1] worked out at 87.4%. Moreover, at METTL3, the “MOLM-13 West. blot at 24h 2 μM comp conc. Degradation (%) of METTL3” value (“MOLM-13 West. blot … (%) of METTL3” for short) turned out to be 42 ± 14%. Moreover, in data set [2], the “TCFA amplitude (mean ± SEM)” value was determined as 1.0 ± 0.0, the “ECmax (nM) ± SD” value is given as 80 ± 0 nM and the ECmax entry is given as “submicromolar”. For the same compound, the “degradation of METTL3 and/or METTL14” value at METTL3-14 was at least 50%.

With `CC1(C)CCN(Cc2cc(F)c(N3CC(=O)NC4(CCN(c5cc(NCCN6CCN(C(=O)CCCCCCCNc7cccc8c7C(=O)N(C7CCC(=O)NC7=O)C8=O)CC6)ncn5)CC4)C3)cc2F)CC1` (centres unmarked) [Compound 31], the “MOLM-13 West. blot … (%) of METTL14” value in the data set with METTL14 came out at 55 ± 24%. Besides, in data set [1], the viability at 72 h, 0.6 µM came out at 95.4%; the viability at 72 h, 1.25 µM worked out at 88.3%; the viability at 72 h, […] is 88%; the viability at 72 h, 5 µM turned out to be 85.2%. The viability at 72 h, 10 µM in data set [1] worked out at 80.2%. Besides, the “MOLM-13 West. blot … (%) of METTL3” value on METTL3 was determined as 49 ± 33%. Moreover, in data set [2], the “TCFA amplitude (mean ± SEM)” value worked out at 0.9 ± 0.0, the “ECmax (nM) ± SD” value was 110 ± 40 nM and the ECmax result is reported as “submicromolar”. Moreover, the “degradation of METTL3 and/or METTL14” value on METTL3-14 was at least 50%.

In the case of `CC1(C)CCN(Cc2cc(F)c(N3CC(=O)NC4(CCN(c5cc(NCCN6CCN(c7cccc8c7C(=O)N(C7CCC(=O)NC7=O)C8=O)CC6)ncn5)CC4)C3)cc2F)CC1` (centres unmarked) [Compound 32], the “MOLM-13 West. blot … (%) of METTL14” value with METTL14 is given as “/ (Degradation <10% or stabilization)”. In data set [1], the viability at 72 h, 0.6 µM was found to be 106%; the viability at 72 h, 1.25 µM is 106%; the viability at 72 h, […] turned out to be 103%; the viability at 72 h, 5 µM came out at 91.5%. In addition, the viability at 72 h, 10 µM in data set [1] came out at 74.6%. Further, the “MOLM-13 West. blot … (%) of METTL3” value at METTL3 is recorded as “/ (Degradation <10% or stabilization)”. For the same compound, in data set [2], the “activity / signal in the ternary complex formation assay” value is “inactive” and the “ECmax (nM) ± SD” value was “– ^b”. The “degradation of METTL3 and/or METTL14” value at METTL3-14 was “inactive”.

In the case of `CC1(C)CCN(Cc2cc(F)c(N3CC(=O)NC4(CCN(c5cc(NCCN6CCN(c7cnc(N8CCN(C(=O)CCCNc9cccc%10c9C(=O)N(C9CCC(=O)NC9=O)C%10=O)CC8)nc7)CC6)ncn5)CC4)C3)cc2F)CC1` (centres unmarked) [Compound 33], the “MOLM-13 West. blot … (%) of METTL14” value with METTL14 is given as 51 ± 19%. In data set [1], the viability at 72 h, 0.6 µM is 92.1%; the viability at 72 h, 1.25 µM amounted to 90.9%; the viability at 72 h, […] worked out at 95.3%; the viability at 72 h, 5 µM worked out at 97.7%. Also, the viability at 72 h, 10 µM in data set [1] came to 89.6%. In addition, on METTL3, the “MOLM-13 West. blot … (%) of METTL3” value is 44% and 44 ± 6%. Also, in data set [2], the “TCFA amplitude (mean ± SEM)” value was 0.8 ± 0.1 and the “ECmax (nM) ± SD” value is given as 70 ± 10 nM. The “degradation of METTL3 and/or METTL14” value on METTL3-14 was “at least 50%”.

`CNc1cc(N2CCC3(CC2)CN(c2cc(F)c(CN4CCC(C)(C)CC4)cc2F)CC(=O)N3)ncn1` [UZH2, reference compound]: the antiproliferative effect entry with PC3 cell line is recorded as “not”. In addition, the “activity / signal in the ternary complex formation assay” value in data set [2] is reported as “no activity”. In addition, the “METTL3–14 levels” value at METTL3-14 (MOLM-13, 10 μM UZH2 control without PROTAC) is recorded as “elevated levels of METTL3–14”.

In the case of “CRBN^TBD-Avi(biotin) (from UniProt Q96SW2 318-442) (domain or fragment)”, in data set [3], the degradation of METTL3 and METTL14 in MOLM-13 cells (Western blot) with PROTAC 30 at five concentrations; Hook effect worked out at 60%; the degradation of METTL3 in MOLM-13 cells (Western blot) with PROTAC 14 at five concentrations; Hook effect was 50%.

The record behind these values is publication PMC10900215 (JACS Au, 2024).
